The values below come from patent US7141660B2, “Genes encoding a nystatin polyketide synthase and their manipulation and utility” (Sinvent AS, priority 2000, dated 2006).

This experiment deals with Candida albicans. Briefly: bioassay for antifungal activity against Candida albicans. The class given is cell-based. Conditions: for Activity: Table 5, products of S. noursei nysC mutants, graded against nystatin of wild type (normal). As for the experimental part:
Preliminary analysis of the compounds produced by the S. noursei ERD44 and ERD48 was carried out. It was shown that a heptaenic compound produced by the ERD44 mutant has high antifungal activity against Candida albicans, an organism used in tests for antifungal activity. At this point it is not possible to accurately assay the activity of this compound (tentatively named S44), because it is not yet properly purified, and its exact concentration is difficult to estimate. […] This probably reflects the different states of modifications of the macrolactone ring by i.e. glycosylation at C19, hydroxylation at C10, or oxidation of the methyl group at C16. This could have been expected, since reduction of the macrolactone ring size most probably leads to the lower affinity of the modifying enzymes towards the new substrate.
Antifungal activity of the S48 mixture was tested, and found to constitute approx. 10% of nystatin activity. It seems probable that only one of the compounds in the S48 mixture produced by ERD48, which is fully decorated by the ring-modifying enzymes, is responsible for the antifungal activity detected. Thus, relative antifungal activity of this compound is impossible to assess prior to its purification Some of the […] antibiotics are known to have antibacterial, as well as antifungal activity (Ciftci, et al., J. Antibiot, v. 37: 876–884, 1984). It is thus possible that hexaenic compounds produced by the ERD48 mutant can be used for production of antibacterial agents The changes in the NysC protein leading to production of new polyene compounds in ERD44 and ERD48 mutants, along with the predicted structures of their macrolactone rings are presented in FIG. 5.
The recombinant S.noursei strain selected after this procedure was designated NPR1.1 The S. noursei NPR1.1 recombinant strain was shown by Southern blot analysis to contain the desired deletion in the DH8-coding sequence of nysC. […] The relative mobility of these compounds differed from nystatin, and no UV spectra characteristic for nystatin could be detected in the extracts. […] However, the NPR1 mutant can be potentially useful for further manipulations with the nystatin PKS.

Turning to `C[C@@H]1[C@H](O)[C@@H](C)/C=C/C=C/CC/C=C/C=C/C=C/C=C/C(O[C@H]2O[C@H](C)[C@@H](O)[C@H](N)[C@@H]2O)CC2O[C@](O)(CC(O)C(O)CCC(O)CC(O)CC(O)CC(=O)O[C@H]1C)CC(O)C2C(=O)O` (stereo partly shown) [nystatin], the Activity entry is reported as “normal”.

With `CC1/C=C/C=C/C=C/C=C/C=C/C=C/C=C/C(O)CC2OC(O)(CC(O)CCCC(O)CC(O)CC(O)CC(=O)OC(C)[C@H](C)C1O)CC(O)C2C` (stereo partly shown) [S44], the Activity result is “high”. Also, the “antifungal activity against Candida albicans” value (result in words, unpurified compound or culture extracts) was “high”. For the same compound, the “antifungal activity compared to nystatin” value (rough estimates based on UV absorbance, compound not properly purified, concentration difficult to estimate) was 4–5 times.
